Experimental findings from patent US20250136606A1, “MODULATORS OF TRPML, THEIR COMPOSITIONS AND METHODS OF USE” (Caraway Therapeutics, Inc., priority 2021, published 2025) are described below.

Bounds are passed on as bounds.

What all share (assay type): cell-based
Holding throughout (conditions): fluorescent calcium assay

In one test the target is T1, TRPML2 (Homo sapiens, UniProt Q8IZK6).
T1 construct: expressed in transfected cells
T1 sequence (Q8IZK6 1-566): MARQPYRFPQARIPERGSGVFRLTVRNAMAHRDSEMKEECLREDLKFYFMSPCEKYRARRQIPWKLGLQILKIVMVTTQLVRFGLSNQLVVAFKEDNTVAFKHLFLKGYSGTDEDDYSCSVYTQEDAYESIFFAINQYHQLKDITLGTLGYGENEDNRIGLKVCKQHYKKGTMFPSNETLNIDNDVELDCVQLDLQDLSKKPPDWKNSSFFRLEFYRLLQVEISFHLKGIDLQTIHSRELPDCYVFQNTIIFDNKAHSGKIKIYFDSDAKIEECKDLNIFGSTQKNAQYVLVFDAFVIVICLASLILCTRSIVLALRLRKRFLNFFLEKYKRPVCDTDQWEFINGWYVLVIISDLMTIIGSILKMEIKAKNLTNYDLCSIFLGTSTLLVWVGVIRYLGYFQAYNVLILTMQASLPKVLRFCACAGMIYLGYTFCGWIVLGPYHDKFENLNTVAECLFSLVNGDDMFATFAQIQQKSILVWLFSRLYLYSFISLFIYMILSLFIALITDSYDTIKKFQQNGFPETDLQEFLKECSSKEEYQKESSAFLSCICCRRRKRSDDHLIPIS
Put plainly: Fluorescent TRPML2 assay (performed as for TRPML1, substituting the TRPML2 subtype). A digest of the protocol:
(§1)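 Agonist activity is scored as percent of plate controls from Fluo4 fluorescence after dye-loaded, doxycycline-induced HEK-293 Trex cells meet compound in high-calcium (10 mM) Ringer's. Compounds run in half-log dilutions from 20 micromolar final, in triplicate.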

Another test has as its target TRPML1 (Homo sapiens, UniProt Q9GZU1). Kind of test: Fluorescent TRPML1 assay (Fluo4-AM calcium fluorescence in doxycycline-induced HEK-293 Trex cells). A digest of the protocol:
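First, expression of surface-targeted mutant human TRPML1 is induced in HEK-293 Trex cells with 0.5 ug/mL doxycycline the day before. Next, cells take up 1 micromolar Fluo4-AM in Ringer's with 0.1% Pluronic. Finally, they are added to compounds (6 nanomolar–20 micromolar final) in 10 mM calcium Ringer's and fluorescence is read.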

Another test has as its target T2, TRPML3 (Homo sapiens, UniProt Q8TDD5).
T2 construct: expressed in transfected cells
T2 sequence (Q8TDD5 1-553): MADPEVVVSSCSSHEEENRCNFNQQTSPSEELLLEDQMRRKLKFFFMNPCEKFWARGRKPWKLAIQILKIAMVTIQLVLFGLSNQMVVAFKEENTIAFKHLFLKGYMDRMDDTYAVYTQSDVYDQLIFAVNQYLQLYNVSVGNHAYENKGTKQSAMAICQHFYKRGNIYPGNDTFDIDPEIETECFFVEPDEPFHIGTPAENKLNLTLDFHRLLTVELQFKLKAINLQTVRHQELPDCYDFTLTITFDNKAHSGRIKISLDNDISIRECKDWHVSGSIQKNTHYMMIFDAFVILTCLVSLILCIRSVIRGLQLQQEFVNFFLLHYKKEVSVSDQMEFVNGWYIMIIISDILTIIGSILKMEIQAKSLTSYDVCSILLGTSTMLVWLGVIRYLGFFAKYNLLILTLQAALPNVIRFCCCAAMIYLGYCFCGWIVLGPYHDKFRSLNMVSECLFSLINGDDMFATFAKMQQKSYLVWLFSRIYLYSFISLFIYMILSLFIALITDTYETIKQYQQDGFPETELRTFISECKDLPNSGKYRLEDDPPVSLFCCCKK
Kind of test: Fluorescent TRPML3 assay (performed as for TRPML1, substituting the TRPML3 subtype). A digest of the protocol: as §1

Chain of TRPML1 (Q9GZU1 whole entry L15A/L16A/L577A/L578A, form open): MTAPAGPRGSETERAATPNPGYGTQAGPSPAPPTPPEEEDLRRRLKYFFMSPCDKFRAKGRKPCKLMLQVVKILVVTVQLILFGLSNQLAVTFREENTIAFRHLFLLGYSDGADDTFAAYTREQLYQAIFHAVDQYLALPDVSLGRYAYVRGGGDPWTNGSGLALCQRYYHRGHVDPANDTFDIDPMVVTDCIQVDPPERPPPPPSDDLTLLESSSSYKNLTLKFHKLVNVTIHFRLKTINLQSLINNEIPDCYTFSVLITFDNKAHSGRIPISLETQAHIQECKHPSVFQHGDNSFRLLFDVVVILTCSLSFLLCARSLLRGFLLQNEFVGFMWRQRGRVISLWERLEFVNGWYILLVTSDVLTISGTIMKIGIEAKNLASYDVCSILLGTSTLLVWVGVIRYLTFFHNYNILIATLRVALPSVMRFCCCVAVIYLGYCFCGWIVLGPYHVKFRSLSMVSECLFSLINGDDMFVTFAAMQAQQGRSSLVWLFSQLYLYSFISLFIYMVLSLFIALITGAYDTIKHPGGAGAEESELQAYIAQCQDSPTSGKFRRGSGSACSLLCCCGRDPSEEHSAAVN

Take `C[C@@H]1CN(c2ncnc3c2c(-c2ccccc2)cn3-c2cccnc2)[C@@H](C)CN1C(=O)OC(C)(C)C` [Compound 169, tert-butyl (2R,5S)-2,5-dimethyl-4-(5-phenyl-7-(pyridin-3-yl)-7H-pyrrolo[2,3-d]pyrimidin-4-yl)piperazine-1-carboxylate]: the EC50 is 500 to 2000 nM on TRPML2, under 100 nM on TRPML1 and under 100 nM on TRPML3.

Take `C[C@H]1CN(C(=O)OC(C)(C)C)CCN1c1ncnc2c1c(-c1ccccc1)cn2-c1cnn(C)c1` [Compound 170, tert-butyl (S)-3-methyl-4-(7-(1-methyl-1H-pyrazol-4-yl)-5-phenyl-7H-pyrrolo[2,3-d]pyrimidin-4-yl)piperazine-1-carboxylate]: the results for the EC50 on TRPML2, on TRPML1 and on TRPML3 were 500 to 2000 nM, 100 to 500 nM and under 100 nM, respectively.

Take `CC(C)(C)OC(=O)N1CCN(c2nccc3c2c(-c2ccccc2F)cn3-c2cncnc2)CC1` [Compound 171, tert-butyl 4-(3-(2-fluorophenyl)-1-(pyrimidin-5-yl)-1H-pyrrolo[3,2-c]pyridin-4-yl)piperazine-1-carboxylate]: the results for the EC50 on TRPML2, on TRPML1 and at TRPML3 were over 2000 nM, 500 to 2000 nM and over 2000 nM, respectively.

`CC(C)(CF)OC(=O)N1CCN(c2ncnc3c2c(-c2ccccc2F)cn3-c2cccnc2)CC1` [Compound 172, 1-fluoro-2-methylpropan-2-yl 4-(5-(2-fluorophenyl)-7-(pyridin-3-yl)-7H-pyrrolo[2,3-d]pyrimidin-4-yl)piperazine-1-carboxylate]: the EC50 on TRPML2 was over 2000 nM; on TRPML1, 500 to 2000 nM; at TRPML3 it was 500 to 2000 nM.

Turning to `CC(C)(CF)OC(=O)N1CCN(c2ncnc3c2c(-c2ccccc2F)cn3-c2cncnc2)CC1` [Compound 173, 1-fluoro-2-methylpropan-2-yl 4-(5-(2-fluorophenyl)-7-(pyrimidin-5-yl)-7H-pyrrolo[2,3-d]pyrimidin-4-yl)piperazine-1-carboxylate], the results for the EC50 at TRPML2, at TRPML1 and at TRPML3 were over 2000 nM, 500 to 2000 nM and 500 to 2000 nM, respectively.

In the case of `C[C@@H]1CN(c2ncnc3c2c(-c2ccccc2F)cn3-c2cnn(C)c2)[C@@H](C)CN1C(=O)OC(C)(C)C` [Compound 176, tert-butyl (2R,5S)-4-(5-(2-fluorophenyl)-7-(1-methyl-1H-pyrazol-4-yl)-7H-pyrrolo[2,3-d]pyrimidin-4-yl)-2,5-dimethylpiperazine-1-carboxylate], the EC50 lay in the range of 500 to 2000 nM on TRPML2, 100 to 500 nM at TRPML1 and 100 to 500 nM on TRPML3.

On to `Cc1cncc(-n2cc(-c3cccnc3)c3c(N4CCN(C(=O)OC(C)(C)C)C[C@@H]4C)ncnc32)c1` [Compound 177, tert-butyl (S)-3-methyl-4-(7-(5-methylpyridin-3-yl)-5-(pyridin-3-yl)-7H-pyrrolo[2,3-d]pyrimidin-4-yl)piperazine-1-carboxylate], for which the figures for the EC50 at TRPML2, on TRPML1 and at TRPML3 were over 2000 nM, 500 to 2000 nM and 500 to 2000 nM, respectively.

Regarding `Cc1cncc(-n2cc(-c3cccnc3)c3c(N4C[C@@H](C)N(C(=O)OC(C)(C)C)C[C@@H]4C)ncnc32)c1` [Compound 178, tert-butyl (2R,5S)-2,5-dimethyl-4-(7-(5-methylpyridin-3-yl)-5-(pyridin-3-yl)-7H-pyrrolo[2,3-d]pyrimidin-4-yl)piperazine-1-carboxylate], the figures for the EC50 at TRPML2, at TRPML1 and at TRPML3 were over 2000 nM, 100 to 500 nM and 500 to 2000 nM, respectively.

For the compound `C[C@@H]1CN(c2ncnc3c2c(-c2cccnc2)cn3-c2cncc(C(F)(F)F)c2)[C@@H](C)CN1C(=O)OC(C)(C)C` [Compound 179, tert-butyl (2R,5S)-2,5-dimethyl-4-(5-(pyridin-3-yl)-7-(5-(trifluoromethyl)pyridin-3-yl)-7H-pyrrolo[2,3-d]pyrimidin-4-yl)piperazine-1-carboxylate], the values for the EC50 on TRPML2, on TRPML1 and on TRPML3 were over 2000 nM, 500 to 2000 nM and 100 to 500 nM, respectively.

As to `Cc1nccnc1-c1cn(-c2ccc(F)c(F)c2)c2ncnc(N3C[C@@H](C)N(C(=O)OC(C)(C)C)C[C@@H]3C)c12` [Compound 180, tert-butyl (2R,5S)-4-(7-(3,4-difluorophenyl)-5-(3-methylpyrazin-2-yl)-7H-pyrrolo[2,3-d]pyrimidin-4-yl)-2,5-dimethylpiperazine-1-carboxylate], the EC50 is 500 to 2000 nM at TRPML2, 100 to 500 nM at TRPML1 and under 100 nM on TRPML3.

For `Cc1nccnc1-c1cn(-c2ccc(F)cc2)c2ncnc(N3C[C@@H](C)N(C(=O)OC(C)(C)C)C[C@@H]3C)c12` [Compound 181, tert-butyl (2R,5S)-4-(7-(4-fluorophenyl)-5-(3-methylpyrazin-2-yl)-7H-pyrrolo[2,3-d]pyrimidin-4-yl)-2,5-dimethylpiperazine-1-carboxylate], the EC50 on TRPML2 lay in the range of 500 to 2000 nM; at TRPML1 it was 100 to 500 nM; on TRPML3 it was 100 to 500 nM.

Regarding `Cc1nccnc1-c1cn(-c2ccccc2)c2ncnc(N3C[C@@H](C)N(C(=O)OC(C)(C)C)C[C@@H]3C)c12` [Compound 182, tert-butyl (2R,5S)-2,5-dimethyl-4-(5-(3-methylpyrazin-2-yl)-7-phenyl-7H-pyrrolo[2,3-d]pyrimidin-4-yl)piperazine-1-carboxylate], the EC50 at TRPML2 was over 2000 nM; at TRPML1 it was 500 to 2000 nM; on TRPML3 it was 500 to 2000 nM.

Regarding `C[C@H]1CN(C(=O)OC(C)(C)C(F)(F)F)CCN1c1ncnc2c1c(-c1ccccc1)cn2-c1cnn(C)c1` [Compound 183, 1,1,1-trifluoro-2-methylpropan-2-yl(S)-3-methyl-4-(7-(1-methyl-1H-pyrazol-4-yl)-5-phenyl-7H-pyrrolo[2,3-d]pyrimidin-4-yl)piperazine-1-carboxylate], the values for the EC50 on TRPML2, on TRPML1 and at TRPML3 were 500 to 2000 nM, 100 to 500 nM and 100 to 500 nM, respectively.

For `Cc1nccnc1-c1cn(-c2ccc(Cl)cc2)c2ncnc(N3C[C@@H](C)N(C(=O)OC(C)(C)C)C[C@@H]3C)c12` [Compound 184, tert-butyl (2R,5S)-4-(7-(4-chlorophenyl)-5-(3-methylpyrazin-2-yl)-7H-pyrrolo[2,3-d]pyrimidin-4-yl)-2,5-dimethylpiperazine-1-carboxylate], the values for the EC50 at TRPML2, on TRPML1 and at TRPML3 were 500 to 2000 nM, 100 to 500 nM and 100 to 500 nM, respectively.

As to `C[C@@H]1CN(c2ncnc3c2c(-c2ccccc2F)cn3-c2cnn(C)c2)[C@@H](C)CN1C(=O)OC(C)(C)CF` [Compound 185, 1-fluoro-2-methylpropan-2-yl (2R,5S)-4-(5-(2-fluorophenyl)-7-(1-methyl-1H-pyrazol-4-yl)-7H-pyrrolo[2,3-d]pyrimidin-4-yl)-2,5-dimethylpiperazine-1-carboxylate], the EC50 at TRPML2 is 500 to 2000 nM; at TRPML1 it was under 100 nM; at TRPML3, under 100 nM.

Consider `C[C@@H]1CN(c2ncnc3c2c(-c2ccccc2F)cn3-c2cnn(C)c2)[C@@H](C)CN1C(=O)OC(C)(C)C(F)(F)F` [Compound 186, 1,1,1-trifluoro-2-methylpropan-2-yl (2R,5S)-4-(5-(2-fluorophenyl)-7-(1-methyl-1H-pyrazol-4-yl)-7H-pyrrolo[2,3-d]pyrimidin-4-yl)-2,5-dimethylpiperazine-1-carboxylate], for which the results for the EC50 on TRPML2, on TRPML1 and on TRPML3 were 100 to 500 nM, under 100 nM and under 100 nM, respectively.

As for `CC1CN(C(=O)OC(C)(C)C)CCN1c1nccc2c1c(-c1ccccn1)cn2-c1cccc(Cl)c1` (stereo not drawn) [Compound 187, tert-butyl 4-(1-(3-chlorophenyl)-3-(pyridin-2-yl)-1H-pyrrolo[3,2-c]pyridin-4-yl)-3-methylpiperazine-1-carboxylate], the concentration giving a half-maximal response (EC50) at TRPML2, at TRPML1 and on TRPML3 was 100 to 500 nM throughout.
